Reference: PMC12680861, “Comparative analysis of LJ-4378 and tirzepatide in mouse models of obesity and weight regain” (Archives of Pharmacal Research, 2025)

Legend:
[1] = test system: WR mice; test: WR model: indirect calorimetry and adipose immunoblot after treatment cessation; type: in vivo, C57BL/6 J male mice
Excerpt: To assess post-treatment weight rebound (WR), the mice previously treated with vehicle, LJ-4378, or TZP were maintained on HFD for an additional 4 weeks following treatment cessation. Treatment protocols for the WR groups were identical to those of the HFD groups. In total, nine experimental groups were established: NCD + CTL, NCD + LJ, NCD + TZP; HFD + CTL, HFD + LJ, HFD + TZP; and WR + CTL, WR + LJ, WR + TZP. The volume of oxygen consumed (VO2), carbon dioxide produced (VCO2), respiratory exchange ratio (RER), energy expenditure, activity, and food intake were measured with PhenoMaster (TSE Systems, Bad Homburg, Germany). Indirect calorimetry was performed under controlled conditions, with a stable ambient temperature of 24 °C and a 12 h light/12-h dark cycle. Mice fed HFD were administered vehicle, LJ-4378, or TZP for 14 days, and the last 2 days of treatment were conducted during indirect calorimetry analysis. The WR model was examined by indirect calorimetry after 2 and 4 weeks of the weight regaining phase.
For protein extraction, we utilized PRO-RERP Protein Extraction Solution (17081, iNtRON Biotechnology, Gyeonggi-do, Korea), supplemented with […] Protease Inhibitor (S8820, Sigma, St. Louis, MO, USA) and PhosSTOP phosphatase inhibitor (#4906837001, Roche, Basel, Switzerland). Protein concentrations were determined using the Pierce BCA protein assay Kit (#23227, Thermo Fisher, Waltham, Massachusetts, USA) by measuring absorbance at 562 nm with a MultiSkan GO spectrophotometer (Thermo Fisher). The quantified proteins were loaded and separated in 12% SDS-PAGE gels and transferred to polyvinylidene difluoride (PVDF) membranes (Bio-Rad, Hercules, CA, USA). Membranes were blocked in 5% bovine serum albumin or skim milk in Tris-buffered saline with 0.1% Tween 20 (TBST) for 1 h, followed by overnight incubation with primary antibodies. The next day, membranes were washed 3 times with TBST and incubated for 1 h with horseradish peroxidase (HRP)-conjugated secondary antibody: Goat anti-rabbit (1:3000, #31460, Thermo Fisher) and Goat anti-Mouse IgG (1:3000, 115–035-174, Jackson ImmunoResearch). After secondary antibody incubation, membranes were washed 3 times with TBST and detected with the Fusion Solo chemiluminescence imaging system (Vilber Lourmat, France). EvolutionCapt (version 17.03) software and the ImageJ (National Institutes of Health, Bethesda, MD, USA) program were used for analysis and to quantify the protein level.

[2] = target: CYP2D6 (Homo sapiens, UniProt P10635); settings: microsomes, 10 µM
Sequence of CYP2D6 (P10635 whole entry, canonical isoform): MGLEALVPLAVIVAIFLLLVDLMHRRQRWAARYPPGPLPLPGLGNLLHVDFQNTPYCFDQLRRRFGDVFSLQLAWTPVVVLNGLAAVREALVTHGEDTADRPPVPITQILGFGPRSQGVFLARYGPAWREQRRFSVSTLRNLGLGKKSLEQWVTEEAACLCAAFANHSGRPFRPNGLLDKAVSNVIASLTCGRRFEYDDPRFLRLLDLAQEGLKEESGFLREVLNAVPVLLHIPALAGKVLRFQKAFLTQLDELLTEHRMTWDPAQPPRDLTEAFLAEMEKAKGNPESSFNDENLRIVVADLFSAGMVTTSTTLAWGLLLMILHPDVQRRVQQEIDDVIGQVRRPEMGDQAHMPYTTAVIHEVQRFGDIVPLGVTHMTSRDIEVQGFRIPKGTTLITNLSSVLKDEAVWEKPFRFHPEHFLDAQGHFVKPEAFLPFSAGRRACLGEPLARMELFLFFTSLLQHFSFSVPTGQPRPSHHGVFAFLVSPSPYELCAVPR
Protocol: Cytochrome 450 (CYP) enzyme inhibition was evaluated using pooled human liver microsomes (Corning, #452117). […] Substrates and corresponding metabolites for each CYP isoform were as follows: phenacetin and acetaminophen for CYP1A2 (Sigma Aldrich, #77440 and A7085, respectively), diclofenac and 4'-hydroxydiclofenac for CYP2C9 (Sigma Aldrich, D6899; TRC, H825225), S-mephenytoin and 4'-hydroxymephenytoin for CYP2C19 (Sigma Aldrich, UC175; Santacruz, sc210197), dextromethorphan and dextrorphan for CYP2D6 (Sigma Aldrich, #81091 and UC205), and midazolam and 1'-hydroxymidazolam for CYP3A4 (KFDA; Sigma Aldrich, UC430).
Samples were preincubated at 37 °C for 5 min, and the reaction was initiated by the addition of the NADPH regeneration system, followed by incubation at 37 °C for 15 min. The reaction was terminated by adding acetonitrile containing the internal standard, and centrifuged at 15,000 rpm for 5 min at 4 °C. The supernatant was analyzed by LC–MS/MS using a Nexera XR system (Shimadzu, Japan) coupled with a TSQ Vantage mass spectrometer (Thermo, USA). […] Metabolites were quantified in multiple reaction monitoring (MRM) mode with Xcalibur software (version 4.4).
All experiments were performed in duplicate with variability ≤ 15%. The percent activity of each CYP enzyme was calculated based on metabolite formation relative to the no-inhibitor control.

[3] = two weeks after treatment cessation

With CCCCC#Cc1nc(N)c2ncn([C@@H]3SC[C@@H](O)[C@H]3O)c2n1 [LJ-4378] the “P-HSL and mitochondrial proteins in BAT and iWAT, versus WR controls and TZP” value ([1]; 2 weeks after treatment cessation) was “higher levels”, the “energy expenditure, ANCOVA adjusted for body mass, versus vehicle or TZP” value ([1]; 2 weeks post-treatment, WR) was “higher energy expenditure” and the “elevated energy expenditure after 4 weeks of WR” value ([1]; 4 weeks post-treatment) was “no longer evident”. The “VO2, VCO2 and energy expenditure compared with TZP-treated group” value [1, 3] was “significantly higher”, the “VO2, VCO2 and energy expenditure compared with WR controls” value [1, 3] was “elevated” and the “% of control activity CYP2D6” value [2] was 89.3%.
